Publication PMC8997913, “Lichen Secondary Metabolites Inhibit the Wnt/β-Catenin Pathway in Glioblastoma Cells and Improve the Anticancer Effects of Temozolomide” (Cells, 2022)

Assays:
[1] = tested on: Wnt/β-catenin pathway target genes in A-172 cells; assay: qPCR of β-catenin and Wnt target genes, A-172; assay type: cell-based, human; settings: A-172, 48 h
Method: Based on the MTT test, the lichen secondary metabolite concentrations allowing the survival of more than 70% of cells were chosen for the subsequent experiments. The compounds were added as follows: A-172 cells—atranorin 25 µM, caperatic acid 50 µM, physodic acid 25 µM, squamatic acid 25 µM, salazinic acid 50 µM, and lecanoric acid 100 µM; T98G cells—atranorin 50 µM, caperatic acid 100 µM, physodic acid 25 µM, squamatic acid 50 µM, salazinic acid 100 µM, and lecanoric acid 100 µM; U-138 MG cells—atranorin 25 µM, caperatic acid 50 µM, physodic acid 25 µM, squamatic acid 50 µM, salazinic acid 50 µM, and lecanoric acid 100 µM. As far as the TMZ treatment is concerned, it was added in the concentrations depending on the MGMT expression and methylation status, i.e., TMZ 30 µM was added to the A-172 cell line, and TMZ 100 µM was added to both the T98G and U-138 MG cell lines. In the case of the 2D culture, the cells were treated with the compounds 24 h after seeding, whereas, in regard to 3D culture, 5 days were needed to form spheroids. All subsequent analyses were performed 48 h after treatment.
The Universal RNA Purification Kit (EURx, Gdańsk, Poland) was used for total RNA isolation from the A-172, T98G, and U-138 MG cells, and the Revert-Aid First Strand cDNA Synthesis kit (Fermentas, Burlington, ON, Canada) was chosen for cDNA synthesis. Quantitative real-time PCR (qPCR) was performed using Hot FIREPol EvaGreen qPCR Mix Plus (Solis Biodyne, Tartu, Estonia) and LightCycler 96 (Roche Diagnostics GmbH, Mannheim, Germany). Primer sequences were previously published and their synthesis was performed at the Institute of Biochemistry and Biophysics, Warsaw, Poland. The protocol started with 15 min enzyme activation at 95 °C, followed by 40 cycles of 95 °C for 15 s; appropriate annealing temperature for 20 s; 72 °C for 40 s and the final elongation at 72 °C for 5 min. Melting curve analysis was used to confirm the generation of a single amplification product. TATA box-binding protein (TBP), a component of the DNA-binding protein complex TFIID, served as the endogenous RNA control. The results were expressed as N-fold differences in the gene expression relative to the TBP gene. The ΔΔCt method was used for fold-change calculation. All samples were analyzed in triplicate, and the reaction was repeated at least twice.

[2] = tested on: MDA-MB-231 breast cancer cells; set-up: method as in PMID 32096436; settings: MDA-MB-231, ref [31]; read-out: IC50 concentration; cited from earlier work
[3] = tested on: MCF-7 breast cancer cells; set-up: method as in PMID 32096436; settings: MCF-7, ref [31]; read-out: IC50 concentration; cited from earlier work
HCT-116 cells [4] = tested on: HCT-116 cells; set-up: method as in PMID 35190352; settings: 30 µg/mL, ref [30]; cited from earlier work
HCT-116 cells [5] = tested on: HCT-116 cells; set-up: method as in PMID 35190352; settings: HCT-116, ref [30]; cited from earlier work
HCT-116 cells [6] = tested on: HCT-116 cells; set-up: method as in PMID 35190352; settings: atranorin at 30 µg/mL, ref [30]; cited from earlier work
NIH3T3 cells = tested on: NIH3T3 cells; set-up: method as in PMID 35190352; settings: NIH3T3, ref [30]; cited from earlier work
HeLa cells = tested on: HeLa cells; set-up: method as in PMID 35190352; settings: ref [30]; cited from earlier work
A-172 cells = settings: taken from the literature, ref [5]; read-out: IC50 [uM] ± SEM A-172; cited from earlier work
T98G cells [7] = settings: taken from the literature, ref [5]; read-out: IC50 [uM] ± SEM T98G; cited from earlier work
T98G cells [8] = assay: ROS (superoxide) generation, flow cytometry, T98G; assay type: cell-based, human; settings: 48 h
Method: Based on the MTT test, the lichen secondary metabolite concentrations allowing the survival of more than 70% of cells were chosen for the subsequent experiments. The compounds were added as follows: A-172 cells—atranorin 25 µM, caperatic acid 50 µM, physodic acid 25 µM, squamatic acid 25 µM, salazinic acid 50 µM, and lecanoric acid 100 µM; T98G cells—atranorin 50 µM, caperatic acid 100 µM, physodic acid 25 µM, squamatic acid 50 µM, salazinic acid 100 µM, and lecanoric acid 100 µM; U-138 MG cells—atranorin 25 µM, caperatic acid 50 µM, physodic acid 25 µM, squamatic acid 50 µM, salazinic acid 50 µM, and lecanoric acid 100 µM. […]
The intracellular detection of superoxide radicals was detected by flow cytometric analysis after the staining with dihydroethidium, using The Muse® Oxidative Stress Kit (Merck, Darmstadt, Germany). Briefly, 100,000 cells per well were seeded on 6-well plates and after a 24 h incubation they were treated with the analyzed lichen secondary metabolites in the concentrations allowing >70% of cell survival; cells treated with DMSO were used as the negative control. […] The obtained data were evaluated using Muse® Analysis Software ver. […]

[9] = mRNA vs DMSO control, single agent, (TMZ 30 µM)
[10] = mRNA vs DMSO control, single agent

Structure (SMILES): COC(=O)c1c(C)cc(OC(=O)c2c(C)cc(O)c(C=O)c2O)c(C)c1O [Atranorin]
- Axin2 expression [1, 9]: downregulated
- IC50 [2]: 5.36 ± 0.85 µM
- IC50 [3]: 7.55 ± 1.2 µM
- viability of HCT-116 cells (HCT-116 cells [4]): significantly reduced
- cell cycle distribution (HCT-116 cells [5]): no significant effect
- apoptosis induction (HCT-116 cells [6]): significantly induced apoptosis

Structure (SMILES): CCCCCCCCCCCCCCC(C(=O)O)C(O)(CC(=O)OC)C(=O)O (centres unmarked) [Caperatic acid]
- NEDD9 expression [1, 10]: downregulated
- Axin2 expression [1, 9]: downregulated

Structure (SMILES): Cc1cc(OC(=O)c2c(C)cc(O)cc2O)cc(O)c1C(=O)O [Lecanoric acid]
- c-MYC expression [1, 9]: upregulated
- viability of HCT-116 cells (HCT-116 cells [4]): significantly reduced
- cell cycle distribution (HCT-116 cells [5]): cell cycle arrest in the G2 phase
- cell cycle distribution (NIH3T3 cells): cell cycle arrest in the G2 phase
- cell cycle distribution (HeLa cells): cell cycle arrest in the G2 phase
- apoptosis induction (HCT-116 cells [6]): did not induce apoptosis

Structure (SMILES): Cc1cc(O)c(C=O)c2c1C(=O)Oc1c(CO)c(O)c3c(c1O2)C(O)OC3=O (centres unmarked) [Salazinic acid]
- IC50 (A-172 cells): > 100 µM
- IC50 (T98G cells [7]): > 100 µM

Structure (SMILES): COc1cc(C)c(C(=O)Oc2cc(C)c(C(=O)O)c(O)c2C)c(O)c1C(=O)O [Squamatic acid]
- oxidative stress (superoxide) induction (T98G cells [8]): induce oxidative stress
- CCND1 expression ([1]; co-treatment with TMZ 30 µM): upregulation
- BIRC5 expression [1, 10]: diminished
- Axin2 expression [1, 9]: downregulated
